This is an account of results in ChEMBL document CHEMBL3774336, “Identification of spirooxindole and dibenzoxazepine motifs as potent mineralocorticoid receptor antagonists” (Bioorg Med Chem, 2016).

Molecules are shown by their SMILES.

The term inhibition denotes the relative decrease from the control value, in per cent. Higher therefore signals a strong effect. By Ki is commonly meant the equilibrium dissociation constant of an inhibitor or competing ligand from its target. A high value points to weaker binding.

One data set addresses hERG (KCNH2) (Homo sapiens, UniProt Q12809). In words: Inhibition of human ERG (unknown origin) at 10 uM.
For data set [1], the target named is T1, Progesterone receptor (Homo sapiens) (UniProt P06401).
T1 sequence (whole entry): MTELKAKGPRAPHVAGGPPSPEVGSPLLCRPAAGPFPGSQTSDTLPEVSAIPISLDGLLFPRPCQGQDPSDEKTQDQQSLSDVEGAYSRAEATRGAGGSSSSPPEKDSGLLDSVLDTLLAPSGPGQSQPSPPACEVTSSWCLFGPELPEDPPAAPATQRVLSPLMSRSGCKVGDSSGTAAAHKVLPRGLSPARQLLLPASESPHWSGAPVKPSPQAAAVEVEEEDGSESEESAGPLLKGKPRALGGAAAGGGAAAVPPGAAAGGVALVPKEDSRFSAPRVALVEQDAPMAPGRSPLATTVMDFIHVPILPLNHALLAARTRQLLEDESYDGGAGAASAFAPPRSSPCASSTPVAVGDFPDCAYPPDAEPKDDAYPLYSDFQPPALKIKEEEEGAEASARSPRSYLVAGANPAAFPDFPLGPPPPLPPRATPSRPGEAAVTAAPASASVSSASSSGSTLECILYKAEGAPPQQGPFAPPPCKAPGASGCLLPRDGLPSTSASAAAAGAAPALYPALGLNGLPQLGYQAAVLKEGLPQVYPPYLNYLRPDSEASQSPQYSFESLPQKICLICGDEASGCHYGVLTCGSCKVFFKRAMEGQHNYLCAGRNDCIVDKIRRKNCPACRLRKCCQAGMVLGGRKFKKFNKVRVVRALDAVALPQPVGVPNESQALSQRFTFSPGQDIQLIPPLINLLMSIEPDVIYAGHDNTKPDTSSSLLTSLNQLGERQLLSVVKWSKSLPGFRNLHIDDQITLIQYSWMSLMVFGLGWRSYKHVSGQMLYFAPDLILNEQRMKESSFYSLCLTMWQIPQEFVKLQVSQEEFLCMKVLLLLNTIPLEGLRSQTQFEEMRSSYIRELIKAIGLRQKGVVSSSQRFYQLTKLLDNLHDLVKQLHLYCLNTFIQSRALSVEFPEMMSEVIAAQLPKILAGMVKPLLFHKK
Description: Inhibition of GST-tagged human progesterone receptor LBD domain expressed in insect cells at 10 uM by Gal4-based fluorescence polarization assay. In general terms: In fluorescence polarisation assays a small probe gives low polarisation when free and higher when bound to something large.

Data set [2] deals with Mineralocorticoid receptor (Homo sapiens, UniProt P08235, C808S).
Sequence of Mineralocorticoid receptor (P08235 whole entry C808S): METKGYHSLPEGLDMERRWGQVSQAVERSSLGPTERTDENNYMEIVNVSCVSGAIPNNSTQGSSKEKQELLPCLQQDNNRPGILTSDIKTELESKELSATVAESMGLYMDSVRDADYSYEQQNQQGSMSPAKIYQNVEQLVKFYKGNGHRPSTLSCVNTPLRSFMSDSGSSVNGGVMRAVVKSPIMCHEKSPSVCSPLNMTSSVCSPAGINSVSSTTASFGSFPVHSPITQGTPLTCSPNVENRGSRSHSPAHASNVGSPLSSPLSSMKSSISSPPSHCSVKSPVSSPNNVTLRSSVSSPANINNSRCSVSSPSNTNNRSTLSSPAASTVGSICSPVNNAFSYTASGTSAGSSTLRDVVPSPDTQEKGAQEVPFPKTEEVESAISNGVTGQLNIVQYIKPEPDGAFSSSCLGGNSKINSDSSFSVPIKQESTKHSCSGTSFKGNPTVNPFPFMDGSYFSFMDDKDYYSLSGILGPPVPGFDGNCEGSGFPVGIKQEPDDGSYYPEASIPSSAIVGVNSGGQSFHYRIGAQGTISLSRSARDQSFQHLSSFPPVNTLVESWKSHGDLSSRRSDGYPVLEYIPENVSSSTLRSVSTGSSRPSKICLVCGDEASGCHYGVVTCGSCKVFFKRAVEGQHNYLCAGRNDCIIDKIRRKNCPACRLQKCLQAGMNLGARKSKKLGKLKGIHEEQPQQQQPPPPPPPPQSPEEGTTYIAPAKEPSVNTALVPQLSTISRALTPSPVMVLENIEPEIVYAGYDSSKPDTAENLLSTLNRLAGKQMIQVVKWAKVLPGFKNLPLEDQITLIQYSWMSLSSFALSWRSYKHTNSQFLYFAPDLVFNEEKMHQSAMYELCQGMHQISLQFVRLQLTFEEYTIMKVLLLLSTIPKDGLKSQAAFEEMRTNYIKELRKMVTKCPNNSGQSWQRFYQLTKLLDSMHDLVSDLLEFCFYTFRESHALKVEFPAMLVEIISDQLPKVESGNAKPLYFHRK
Data set [3] has as its target Histamine H1 receptor (Homo sapiens) (UniProt P35367). In words: Inhibition of histamine H1 receptor (unknown origin) at 10 uM.
The target in data set [4] is T2, Alpha-2A adrenergic receptor (Homo sapiens) (UniProt P08913).
T2 sequence (whole entry): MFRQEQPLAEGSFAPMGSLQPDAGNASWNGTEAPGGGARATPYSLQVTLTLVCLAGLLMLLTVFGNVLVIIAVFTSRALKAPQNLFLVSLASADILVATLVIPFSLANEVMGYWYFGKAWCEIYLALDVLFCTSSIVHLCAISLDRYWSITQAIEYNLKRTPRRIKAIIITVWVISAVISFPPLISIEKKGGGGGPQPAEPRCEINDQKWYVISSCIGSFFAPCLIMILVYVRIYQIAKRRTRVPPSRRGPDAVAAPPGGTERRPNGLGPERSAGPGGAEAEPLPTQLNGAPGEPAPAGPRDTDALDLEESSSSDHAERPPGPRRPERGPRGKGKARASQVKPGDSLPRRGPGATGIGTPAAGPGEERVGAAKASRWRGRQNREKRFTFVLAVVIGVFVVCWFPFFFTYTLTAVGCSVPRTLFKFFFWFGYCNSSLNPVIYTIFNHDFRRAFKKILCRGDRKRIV
In words: Inhibition of adrenergic alpha2A receptor (unknown origin) at 10 uM.

In data set [5] the target is T3, Androgen receptor (Rattus norvegicus) (UniProt P15207).
T3 sequence (whole entry): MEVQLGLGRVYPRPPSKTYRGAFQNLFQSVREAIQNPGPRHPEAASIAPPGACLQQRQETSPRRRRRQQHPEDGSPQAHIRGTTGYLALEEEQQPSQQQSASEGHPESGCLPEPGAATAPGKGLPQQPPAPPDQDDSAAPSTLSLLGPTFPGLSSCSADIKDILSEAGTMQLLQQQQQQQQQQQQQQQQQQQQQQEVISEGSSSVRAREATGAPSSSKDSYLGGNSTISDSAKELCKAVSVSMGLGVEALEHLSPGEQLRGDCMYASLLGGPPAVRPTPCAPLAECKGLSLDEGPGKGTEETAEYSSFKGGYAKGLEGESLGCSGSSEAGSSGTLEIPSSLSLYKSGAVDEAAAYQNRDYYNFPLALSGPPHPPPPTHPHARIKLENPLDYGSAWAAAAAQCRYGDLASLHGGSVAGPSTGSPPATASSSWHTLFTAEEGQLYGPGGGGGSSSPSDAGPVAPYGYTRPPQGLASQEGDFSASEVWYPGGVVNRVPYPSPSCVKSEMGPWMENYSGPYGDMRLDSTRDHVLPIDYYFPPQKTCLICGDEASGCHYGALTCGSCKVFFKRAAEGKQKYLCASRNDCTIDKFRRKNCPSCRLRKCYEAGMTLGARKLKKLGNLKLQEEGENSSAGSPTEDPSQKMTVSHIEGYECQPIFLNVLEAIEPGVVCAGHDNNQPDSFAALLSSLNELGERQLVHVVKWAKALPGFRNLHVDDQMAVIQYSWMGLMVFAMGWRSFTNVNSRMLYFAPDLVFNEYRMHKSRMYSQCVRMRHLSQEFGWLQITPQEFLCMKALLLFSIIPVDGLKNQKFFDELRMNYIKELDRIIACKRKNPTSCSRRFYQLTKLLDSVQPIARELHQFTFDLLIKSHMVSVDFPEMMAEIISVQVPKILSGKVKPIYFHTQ
In words: Inhibition of GST-tagged rat androgen receptor LBD domain expressed in insect cells at 10 uM by Gal4-based fluorescence polarization assay.

The target in data set [6] is 5-hydroxytryptamine receptor 2B (Homo sapiens) (UniProt P41595). In words: Inhibition of serotonin 5H2B receptor (unknown origin) at 10 uM.
Sequence of 5-hydroxytryptamine receptor 2B (Homo sapiens) (P41595 whole entry): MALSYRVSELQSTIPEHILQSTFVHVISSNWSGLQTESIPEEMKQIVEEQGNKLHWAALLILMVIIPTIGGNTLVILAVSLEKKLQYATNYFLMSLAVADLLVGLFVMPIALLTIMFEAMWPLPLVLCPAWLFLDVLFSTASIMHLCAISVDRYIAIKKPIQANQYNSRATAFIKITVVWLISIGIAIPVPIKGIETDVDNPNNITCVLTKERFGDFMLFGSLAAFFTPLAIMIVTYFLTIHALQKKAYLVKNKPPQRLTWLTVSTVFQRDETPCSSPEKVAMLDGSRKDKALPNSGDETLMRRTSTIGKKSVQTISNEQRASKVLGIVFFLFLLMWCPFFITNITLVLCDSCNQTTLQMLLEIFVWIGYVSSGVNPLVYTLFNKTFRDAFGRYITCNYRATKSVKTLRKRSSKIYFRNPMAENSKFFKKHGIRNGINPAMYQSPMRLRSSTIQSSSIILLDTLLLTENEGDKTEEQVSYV

Sequence of hERG (KCNH2) (Q12809 whole entry): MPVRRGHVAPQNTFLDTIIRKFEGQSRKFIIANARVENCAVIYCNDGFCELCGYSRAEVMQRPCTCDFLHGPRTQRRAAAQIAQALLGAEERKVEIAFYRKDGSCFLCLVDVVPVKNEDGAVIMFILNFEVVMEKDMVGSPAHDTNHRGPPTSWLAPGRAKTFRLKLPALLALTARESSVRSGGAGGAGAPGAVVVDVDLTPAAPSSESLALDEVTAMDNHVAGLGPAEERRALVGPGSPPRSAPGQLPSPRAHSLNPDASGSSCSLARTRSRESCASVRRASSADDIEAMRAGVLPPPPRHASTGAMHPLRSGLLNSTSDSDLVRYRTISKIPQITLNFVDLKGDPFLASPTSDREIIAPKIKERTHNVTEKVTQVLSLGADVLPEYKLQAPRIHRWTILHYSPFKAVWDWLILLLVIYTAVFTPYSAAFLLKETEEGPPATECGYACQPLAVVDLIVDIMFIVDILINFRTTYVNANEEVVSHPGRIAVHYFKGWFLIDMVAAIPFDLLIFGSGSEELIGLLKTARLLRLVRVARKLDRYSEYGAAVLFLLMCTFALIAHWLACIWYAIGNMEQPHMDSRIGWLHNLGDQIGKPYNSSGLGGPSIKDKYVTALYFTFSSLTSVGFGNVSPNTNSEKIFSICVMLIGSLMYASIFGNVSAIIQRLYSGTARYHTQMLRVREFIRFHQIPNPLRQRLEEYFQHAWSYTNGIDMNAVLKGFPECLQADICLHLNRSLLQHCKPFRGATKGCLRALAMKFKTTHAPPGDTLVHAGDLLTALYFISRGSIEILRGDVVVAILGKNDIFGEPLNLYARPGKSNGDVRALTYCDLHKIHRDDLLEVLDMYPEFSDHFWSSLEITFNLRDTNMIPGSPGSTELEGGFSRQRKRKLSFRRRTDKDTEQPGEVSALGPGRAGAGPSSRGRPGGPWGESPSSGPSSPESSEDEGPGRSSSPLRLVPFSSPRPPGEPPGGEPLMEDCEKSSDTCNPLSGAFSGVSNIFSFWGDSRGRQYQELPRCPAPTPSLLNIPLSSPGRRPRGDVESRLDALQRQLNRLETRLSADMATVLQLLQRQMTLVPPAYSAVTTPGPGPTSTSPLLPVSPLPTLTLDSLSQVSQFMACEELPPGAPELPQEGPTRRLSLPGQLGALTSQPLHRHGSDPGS
Sequence of Histamine H1 receptor (Homo sapiens) (P35367 whole entry): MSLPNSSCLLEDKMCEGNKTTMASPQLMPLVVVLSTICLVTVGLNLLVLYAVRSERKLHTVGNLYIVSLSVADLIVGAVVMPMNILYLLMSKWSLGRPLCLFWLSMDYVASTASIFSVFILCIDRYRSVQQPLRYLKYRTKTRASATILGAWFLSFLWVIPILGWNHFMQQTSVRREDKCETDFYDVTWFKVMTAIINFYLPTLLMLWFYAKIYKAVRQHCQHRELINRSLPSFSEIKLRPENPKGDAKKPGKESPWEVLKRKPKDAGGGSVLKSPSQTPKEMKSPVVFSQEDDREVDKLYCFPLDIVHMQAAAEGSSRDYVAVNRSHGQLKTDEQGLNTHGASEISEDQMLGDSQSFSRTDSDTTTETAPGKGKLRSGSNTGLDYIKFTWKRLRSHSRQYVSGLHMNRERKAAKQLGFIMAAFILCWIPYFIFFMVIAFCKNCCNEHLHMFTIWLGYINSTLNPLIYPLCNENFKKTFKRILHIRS

For the compound `CN1CCC2(CC1)C(=O)Nc1cc(/C=C3\c4ccccc4COc4cc(F)ccc43)ccc12`, on hERG (KCNH2), 10 µM produced 78% inhibition. The inhibition in data set [1] was less than 40%; in data set [3], 97%; in data set [4] it was 100%; in data set [5], less than 40%; in data set [6] it was 87%. Besides, the inhibition constant (Ki) in data set [2] is 6 nM.
With `O=C1COc2ccc(/C=C3\c4ccccc4COc4cc(F)ccc43)cc2N1`, the inhibition at 10 µM on hERG (KCNH2) was determined as 26%. The inhibition was 98% in data set [1]; 26% in data set [3]; 59% in data set [4]; 77% in data set [5]; 67% in data set [6]. Further, the Ki in data set [2] was 2 nM.
